# Reference: patent publication US20220062331A1, “TREATING IRON DEFICIENCY IN SUBJECTS AT RISK OF CARDIOVASCULAR ADVERSE EVENTS AND IRON FOR THE MANAGEMENT OF ATRIAL FIBRILLATION” (PHARMACOSMOS HOLDING A/S, priority 2019, published 2022)
# What was measured:
# iFGF23 (intact FGF23) = settings: cited from earlier work
# [1] = CKD-04 Phase III study: protocol defined cardiovascular adverse events; assay type: in vivo, human; settings: for composite cardiovascular events (incidence, % of patients): CKD-04 study, IIM 1000 mg single dose (1019 patients) vs iron sucrose 5 x 200 mg (506 patients), within 8 weeks
# Description: (§1) Two Phase III randomized, open-label, comparative safety and efficacy studies were performed in relation to treatment with iron isomaltoside (“IIM”, tradename Monofer®, Monoferric®) and iron sucrose (“IS”, trade name Venofer®) in adult human subjects with iron deficiency anaemia and non-dialysis-dependent chronic kidney disease. These studies allowed comparing the incidence of treatment-emergent cardiovascular adverse events in particular in patients with cardiovascular risk factors.
# (§2) The studies were randomized, open-label, comparative studies. Subjects with iron deficiency anaemia (IDA) were randomized 1:1 to one treatment course of one of two treatments. Iron isomaltoside 1000 was administered as a single dose of 1000 mg of elemental iron. Iron sucrose was administered as 200 mg slow intravenous bolus injections according to its US label and repeated up to 5 times to reach a cumulative dose of 1000 mg. […]
# [2] = Randomized double-blind placebo-controlled trial in chronic heart failure patients: P-wave dispersion on 12-lead ECG (post-hoc analysis); assay type: in vivo, human
# Excerpt: This study was a post-hoc analysis of a randomized, double-blind, placebo-controlled trial that was approved by the South-Central Berkshire ethics committee, the UK Medicines and Healthcare products Regulatory Agency, and the King's College Hospital independent research governance board. King's College London University and King's College Hospital NHS Foundation Trust were co-sponsors. The King's Health Partners clinical trial office monitored the trial and ensured compliance with the International Conference on Harmonization guidelines for Good Clinical Practice and the Declaration of Helsinki. Written informed consent was obtained from all patients. FIG. 1 represents a flow chart of the trial. A total of 25 chronic heart failure patients in normal sinus rhythm were recruited into this trial with 15 randomized to intravenous saline placebo and 10 randomized to intravenous iron isomaltoside.
# Patients with stable, symptomatic, chronic heart failure and a left ventricular ejection fraction <45% were recruited from dedicated heart failure clinics at King's College Hospital, London. Main exclusion criteria were a history of acquired iron overload, known haemochromatosis or first degree relatives with haemochromatosis; an allergic disorder (e.g., asthma, eczema, and anaphylactic reactions); prior hypersensitivity to IV iron drugs or their excipients; active infection, bleeding, malignancy, haemolytic anemia, rheumatoid arthritis, and myelodysplasia; and HIV/AIDS.
# After inclusion into the trial, patients had endpoints assessed which included a 12-lead surface electrocardiogram to measure P-wave dispersion (difference between maximum and minimum P-wave duration across all leads), heart rate (HR), PR interval, QRS duration, QT interval and corrected QT interval (QTc). FIG. 2 is an example of a surface electrocardiogram with P-wave durations measured. An echocardiogram was also done to measure LVEF, left ventricular end-diastolic volume (LVED), left ventricular end-systolic volume (LVES), left atrial (LA) volumes and right atrial (RA) volumes with and without indexing for body surface area. After baseline assessments, patients were then infused a total repletion dose of iron isomaltoside or an equivalent volume of normal saline placebo. Endpoints were then reassessed 2 weeks later. A Student's t-test or a Fisher's Exact test were statistically used to assess the baseline characteristics between the groups. An ANCOVA was used to statistically compare the week 2 endpoint results between the groups with adjustment for each variables baseline value.
# [3] = single total dose infusion; 2 weeks post-infusion; cited from earlier work
# [4] = iron-deficient CHF patients with LVEF ≤45%; single total dose infusion (Jaumdally et al., 2019); cited from earlier work
# [5] = Combined CKD-04/IDA-03 studies: change from baseline in hemoglobin; assay type: in vivo, human
# Description: The primary efficacy outcome measure was the ability to increase Hb (g/dL) within 8 weeks.
# The co-primary efficacy endpoint was analysed using a restricted maximum likelihood (REML)-based mixed model for repeated measures (MMRM) approach. All subjects in the intention-to-treat (ITT) analysis set with post baseline Hb data was to be included with their observed data. The model included the fixed, categorical effects of treatment (iron isomaltoside and iron sucrose), week, treatment-by-week interaction, strata, as well as the continuous, fixed covariates of baseline Hb value and baseline Hb-by-week interaction. An unstructured (co)variance structure was used to model the within-subject errors. […] The Kenward-Roger approximation was to be used to estimate the denominator degrees of freedom. The primary comparisons will be the contrasts between iron isomaltoside and iron sucrose at week 8 based on the least squares means for the treatment-by-week interaction effect. The estimated mean difference based on this model was reported with two-sided symmetric 95% CI, and if the lower bound of the 95% CI is >−0.5 g/dL, the efficacy objective has been met.
# The following efficacy laboratory parameters were analysed: • Hb: Hemoglobin was analyzed by the Coulter LH 750 System. Lytic reagents were used for the complete blood count parameters to prepare the blood so that the system could measure the amount of hemoglobin. The lytic reagent rapidly and simultaneously destroyed the erythrocytes and converted the substantial proportion of the hemoglobin to a stable pigment. The absorbance of the pigment was directly proportional to the hemoglobin concentration in the sample. […] A chemiluminescent substrate, Lumi-Phos* 530, was added to the reaction vessel and light generated by the reaction was measured with a luminometer. • TSAT (s-iron and transferrin will be collected to calculate the TSAT; TSAT=(iron μg/dL/transferrin mg/dL)×70.9). • S-iron: Serum iron (s-iron) was measured by a calorimetric assay using Roche automated clinical chemistry analyzer based on a immunoturbidimetric assay.
# [6] = Combined CKD-04/IDA-03 studies: treatment-emergent cardiovascular and congestive heart failure adverse events; assay type: in vivo; settings: for composite cardiovascular events (incidence, % of patients): 2008 patients on IIM, p=0.0176; for treatment-emergent congestive heart failure adverse events (% of patients) / worsening/exacerbation of heart failure (% of cases): all patients with CHF
# Description: as §1
# The studies were randomized, open-label, comparative studies. Subjects with iron deficiency anaemia (IDA) were randomized 1:1 to one treatment course of one of two treatments. Iron isomaltoside 1000 was administered as a single dose of 1000 mg of elemental iron. Iron sucrose was administered as 200 mg slow intravenous bolus injections according to its US label and repeated up to 5 times to reach a cumulative dose of 1000 mg.
# Said protocol defined cardiovascular adverse events were as follows: • (1) Congestive heart failure requiring hospitalization or medical intervention: • Congestive heart failure requiring hospitalization or medical intervention was defined as meeting the following criteria: • Requires hospitalization defined as an admission to an inpatient unit or a visit to an emergency department that results in at least a 12-hour stay (or a date change if the time of admission/discharge is not available); AND • Clinical manifestation of congestive heart failure including at least one of the following: new or worsening dyspnoea, orthopnoea, paroxysmal nocturnal dyspnoea, oedema, pulmonary basilar crackles, jugular venous distension, or radiological evidence of worsening heart failure; AND • Additional/increased therapy: • Intravenous treatment with diuretic, inotrope, or vasodilator therapy; OR • Mechanical or surgical intervention (mechanical circulatory support, heart transplantation, or ventricular pacing to improve cardiac function) or the use of ultrafiltration, hemofiltration, or dialysis that is specifically directed at treatment of heart failure. • (2) Arrhythmia: • Arrhythmia was defined as any symptomatic deviation from normal sinus rhythm experienced by the subject that results in an evaluation by a health care provider. The evaluation included a physical examination during an outpatient visit, an ECG, or a hospital admission. […]
# [7] = IDA-03 Phase III study: protocol defined cardiovascular adverse events; assay type: in vivo, human; settings: IDA-03 study, 989 vs 494 patients, within 8 weeks
# Description: as §1, §2
# [8] = 20 elderly CHF patients, cited from earlier work
substance,measurement,setting,value
ferric carboxymaltose,effect on iFGF23,iFGF23 (intact FGF23); see WO 2013/134273 A1,significantly increases
ferric derisomaltose [iron isomaltoside 1000],"probability of not experiencing an adjudicated composite adverse cardiovascular event, compared to iron sucrose","[1]; CKD-04, after 8 weeks, Kaplan-Meier",significantly higher
same,"composite cardiovascular events (incidence, % of patients)",[1],4.1%
same,"P-wave dispersion, changes in individual patients (FIG. 5)","[2]; ANCOVA P-value 0.007, unchanged in saline placebo group",shortened
same,reduction of P-wave dispersion,"[2]; at 2 weeks after total repletion dose, vs saline placebo, P=0.007",10 ms
same,"P-wave dispersion, adjusted difference between the groups (ANCOVA)","[2]; at 2 weeks, 95% confidence interval −17 & −3 msec, P=0.007",-10 ms
same,P-wave dispersion difference after adjusting for size of the atria (indexed LA and RA volumes),"[2]; at 2 weeks, 95% confidence interval −18 & −4 msec, P=0.005",-11 ms
same,"effect on the other endpoints (HR, PR, QRS, QT, QTc, LVEF, LV and atrial volumes)","[2]; at 2 weeks, ANCOVA",no significant effect
same,iron stores,[3],repleted
same,skeletal muscle energetics,[3],augmented
same,P wave dispersion,[4],attenuate
same,increase in Hb from baseline compared to iron sucrose,"[5]; all patients, weeks 1 and 2, p<0.001",higher increase
same,change in Hb from baseline compared to iron sucrose (primary efficacy endpoint),"[5]; all patients, weeks 4 and 8",non-inferiority
same,increase in Hb from baseline,"[5]; patients with congestive heart failure in medical history, week 1 and 2",higher increase
same,risk for increasing iFGF23 and triggering iFGF23-mediated effects,"iFGF23 (intact FGF23); clinical trials, Wolf et al., 2019",low
same,incidence on composite CV endpoint (and most sub-items including death from any cause) compared to Venofer and FCM (CDER report),[6]; Ferwon studies vs Injectafer FDA CDER report,lower
same,decrease of composite cardiovascular events when treated with iron isomaltoside 1000 versus iron sucrose,[6]; combined CKD-04/IDA-03,60%
same,"composite cardiovascular events (incidence, % of patients)",[6]; combined CKD-04/IDA-03,2.5%
same,treatment-emergent congestive heart failure adverse events (% of patients),[6]; combined CKD-04/IDA-03,1.8%
same,worsening/exacerbation of heart failure (% of cases),[6]; combined CKD-04/IDA-03,1.8%
same,"rates of congestive heart failure, hypertension, atrial fibrillation, hypotension, and cardiac arrest compared to iron sucrose","[6]; in each study (CKD-04, IDA-03, combined)",lower
same,incidence for congestive heart failure,[6]; patients with CV risk,1.2%
same,worsening of congestive heart failure,[6]; patients with CV risk,1.2%
same,incidence for congestive heart failure,[6]; patients with CV risk and CHF,1.4%
same,worsening of congestive heart failure,[6]; patients with CV risk and CHF,1.4%
same,"composite cardiovascular events (incidence, % of patients)",[7],0.8%
same,"composite cardiovascular events (incidence, % of patients)",[7]; listed as iron,1.2%
same,QoL measures,[8],improved
same,tolerability,[8]; single fast intravenous infusion at relatively high doses without test dose,very well tolerated
iron sucrose,"composite cardiovascular events (incidence, % of patients)",[1],6.9%
same,"composite cardiovascular events (incidence, % of patients)",[6]; combined CKD-04/IDA-03,4.1%
same,treatment-emergent congestive heart failure adverse events (% of patients),[6]; combined CKD-04/IDA-03,6.5%
same,worsening/exacerbation of heart failure (% of cases),[6]; combined CKD-04/IDA-03,5.4%
same,incidence for congestive heart failure,[6]; patients with CV risk,3.5%
same,worsening of congestive heart failure,[6]; patients with CV risk,1.7%
same,incidence for congestive heart failure,[6]; patients with CV risk and CHF,4.9%
same,worsening of congestive heart failure,[6]; patients with CV risk and CHF,3.7%
